# Assay results published in ChEMBL document CHEMBL1129863, “Synthesis and biological evaluation of 5,6-diarylimidazo[2.1-b]thiazole as selective COX-2 inhibitors” (Bioorg Med Chem Lett, 1997).
# Tests used:
# [1] = biological target: Prostaglandin G/H synthase 2 (Homo sapiens, UniProt P35354); experiment: (§1) In vivo ability to inhibit cyclooxygenase-2 enzyme in human whole blood was determined; assay type: organism-based
# [2] = biological target: T1, Prostaglandin G/H synthase 2 (Homo sapiens, UniProt P35354); experiment: as §1; assay type: organism-based; remark: listed apart in the source
# T1 sequence (P35354 whole entry): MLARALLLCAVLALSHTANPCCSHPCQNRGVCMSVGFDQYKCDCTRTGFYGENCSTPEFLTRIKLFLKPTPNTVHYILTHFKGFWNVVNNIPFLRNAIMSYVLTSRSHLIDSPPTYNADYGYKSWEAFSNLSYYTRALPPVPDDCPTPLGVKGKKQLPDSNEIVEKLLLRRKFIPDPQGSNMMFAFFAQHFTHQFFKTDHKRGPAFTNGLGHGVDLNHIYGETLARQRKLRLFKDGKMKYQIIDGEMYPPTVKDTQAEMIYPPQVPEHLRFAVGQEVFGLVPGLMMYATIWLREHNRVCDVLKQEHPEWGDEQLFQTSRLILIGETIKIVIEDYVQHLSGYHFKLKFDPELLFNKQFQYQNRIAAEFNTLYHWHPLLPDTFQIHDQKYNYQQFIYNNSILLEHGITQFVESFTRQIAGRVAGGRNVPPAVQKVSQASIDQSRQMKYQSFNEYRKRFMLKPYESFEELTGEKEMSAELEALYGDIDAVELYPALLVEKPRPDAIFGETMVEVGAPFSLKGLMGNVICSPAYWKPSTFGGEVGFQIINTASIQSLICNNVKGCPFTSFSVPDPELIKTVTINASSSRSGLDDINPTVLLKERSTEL
# [3] = biological target: T1, Prostaglandin G/H synthase 2; assay type: cell-based, CHO
# [4] = test system: Rattus norvegicus; experiment: Effective dose to inhibit carrageenan induced rat paw edema assay was determined; assay type: functional
# [5] = biological target: T2, Prostaglandin G/H synthase 1 (Homo sapiens, UniProt P23219)
# T2 sequence (P23219 whole entry): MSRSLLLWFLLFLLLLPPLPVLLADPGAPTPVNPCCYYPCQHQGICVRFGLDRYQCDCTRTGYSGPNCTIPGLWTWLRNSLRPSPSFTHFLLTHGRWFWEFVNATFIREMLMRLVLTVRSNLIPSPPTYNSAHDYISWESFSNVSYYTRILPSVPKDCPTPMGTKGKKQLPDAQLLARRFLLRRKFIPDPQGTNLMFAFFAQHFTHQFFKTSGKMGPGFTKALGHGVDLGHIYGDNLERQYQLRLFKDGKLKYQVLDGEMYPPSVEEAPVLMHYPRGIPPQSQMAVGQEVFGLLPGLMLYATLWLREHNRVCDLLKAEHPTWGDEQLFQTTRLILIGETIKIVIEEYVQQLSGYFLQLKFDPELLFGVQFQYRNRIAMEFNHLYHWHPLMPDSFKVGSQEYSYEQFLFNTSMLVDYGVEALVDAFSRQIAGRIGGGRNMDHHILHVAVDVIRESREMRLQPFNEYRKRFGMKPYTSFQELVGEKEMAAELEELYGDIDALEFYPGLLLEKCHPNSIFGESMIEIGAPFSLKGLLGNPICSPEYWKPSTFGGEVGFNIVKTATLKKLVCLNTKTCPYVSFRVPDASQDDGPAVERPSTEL
# Description: In vitro inhibition of the production of PGE-2 in arachidonic acid stimulated chinese hamster ovary (CHO) cells transfected with human cyclooxygenase-1
# [6] = species on record: Rattus norvegicus; experiment: animal or person; settings: read-out: Inhibition
# Description: Percentage inhibition against carrageenan induced rat paw edema assay was determined at a dose of 10 mg/Kg
# [7] = Maximum concentration in rats at 1 hr was determined when dosed at 20 mg/Kg perorally; assay type: ADME, organism-based; parameters: dose 20 mg/Kg, route oral; settings: rat, in vivo, po
# [8] = biological target: T2, Prostaglandin G/H synthase 1; experiment: In vivo ability to inhibit cyclooxygenase-1 enzyme in human whole blood was determined; assay type: organism-based
# [9] = test system: Rattus norvegicus; experiment: GI tolerance when rats were dosed at 100 mg/kg for 10 days in GI permeability assay; High level of GI tolerance; assay type: functional, organism-based; parameters: dose 100 mg/kg
SMILES,IC50 [3],IC50 [5],other results
CS(=O)(=O)c1ccc(-c2c(-c3ccc(Cl)cc3)nc3sc(Cl)c(Cl)n23)cc1,3600 nM,> 50 µM,
CSc1ccc(-c2nc3sccn3c2-c2ccccc2)cc1,5000 nM,0.078 µM,
CS(=O)(=O)c1ccc(-c2nc3sc4ccccc4n3c2-c2ccccc2)cc1,> 5000 nM,> 50 µM,
CS(=O)(=O)c1ccc(-c2cc(Br)sc2-c2ccc(F)cc2)cc1 [DUP-697],,,inhibition in vivo at 10 mg/kg [6]: 57%
Cc1sc2nc(-c3ccc(S(C)(=O)=O)cc3)c(-c3ccccc3)n2c1C,> 5000 nM,> 50 µM,
CS(=O)(=O)c1ccc(-c2c(-c3ccccc3)nc3scc(CC(=O)O)n23)cc1,> 5000 nM,,
Cc1sc2nc(-c3ccccc3)c(-c3ccc(S(C)(=O)=O)cc3)n2c1C,5000 nM,> 50 µM,
CS(=O)(=O)c1ccc(-c2c(-c3ccc(F)c(F)c3)nc3sccn23)cc1,12 nM,> 50 µM,IC50 [2]: 2200 nM
CS(=O)(=O)c1ccc(-c2nc3sccn3c2-c2ccccc2)cc1,3210 nM,> 50 µM,
CS(=O)(=O)c1ccc(-c2c(-c3ccccc3)nc3sc4ccccc4n23)cc1,> 5000 nM,> 50 µM,

# The remaining compounds from weak to strong by IC50 [3], led by results:
IC50 [3],IC50 [5],SMILES,other results
3000 nM,> 50 µM,Cc1csc2nc(-c3ccccc3)c(-c3ccc(S(C)(=O)=O)cc3)n12,
1000 nM,> 50 µM,Cc1csc2nc(-c3ccc(S(C)(=O)=O)cc3)c(-c3ccccc3)n12,
900 nM,,CCOC(=O)Cc1csc2nc(-c3ccccc3)c(-c3ccc(S(C)(=O)=O)cc3)n12,
420 nM,0.32 µM,CSc1ccc(-c2c(-c3ccccc3)nc3sccn23)cc1,
140 nM,> 50 µM,Cc1cn2c(-c3ccccc3)c(-c3ccc(S(C)(=O)=O)cc3)nc2s1,
16 nM,> 50 µM,CS(=O)(=O)c1ccc(-c2c(-c3ccc(Cl)cc3)nc3sc(Cl)cn23)cc1,
16 nM,> 50 µM,CS(=O)(=O)c1ccc(-c2c(-c3ccccc3)nc3sccn23)cc1,Cmax [7]: 1000 nM; IC50 [2]: 900 nM; IC50 [8]: > 30 µM; GI tolerance [9]: High level of GI tolerance; ED50 [4]: 2 mg/kg
14 nM,> 50 µM,CS(=O)(=O)c1ccc(-c2c(-c3ccc(F)cc3)nc3sccn23)cc1,IC50 [1]: 25 µM; IC50 [2]: 400 nM; ED50 [4]: 5 mg/kg
12 nM,> 50 µM,Cc1cn2c(-c3ccc(S(C)(=O)=O)cc3)c(-c3ccccc3)nc2s1,IC50 [2]: 17500 nM
